Legend:
[1] = target: Glutamate NMDA receptor (Rattus norvegicus) (UniProt P35439+Q00959+Q00960+Q00961+Q62645+Q8VHN2+Q9R1M7); conditions: Compound concentration 10.0 uM
[2] = species on record: Rattus norvegicus; conditions: Compound concentration 10.0 uM
[3] = target: Histamine H1 receptor (Homo sapiens) (UniProt P35367); conditions: Compound concentration 10.0 uM
[4] = target: Nitric oxide synthase, inducible (Homo sapiens) (UniProt P35228); experiment: Inhibition of Nitric Oxide Synthase, Inducible (iNOS) at compound concentration of 10.0 uM in the Eurofins-Panlabs enzyme assay (Eurofins_assay_199010); parameters: substrate with concentration; conditions: Mus musculus; Compound concentration 10.0 uM
[5] = target: D(1A) dopamine receptor (Homo sapiens) (UniProt P21728); conditions: Compound concentration 10.0 uM
[6] = target: T1, Beta-1 adrenergic receptor (Homo sapiens, UniProt P08588); conditions: Compound concentration 10.0 uM
Target sequence in this assay (P08588 whole entry, looked up): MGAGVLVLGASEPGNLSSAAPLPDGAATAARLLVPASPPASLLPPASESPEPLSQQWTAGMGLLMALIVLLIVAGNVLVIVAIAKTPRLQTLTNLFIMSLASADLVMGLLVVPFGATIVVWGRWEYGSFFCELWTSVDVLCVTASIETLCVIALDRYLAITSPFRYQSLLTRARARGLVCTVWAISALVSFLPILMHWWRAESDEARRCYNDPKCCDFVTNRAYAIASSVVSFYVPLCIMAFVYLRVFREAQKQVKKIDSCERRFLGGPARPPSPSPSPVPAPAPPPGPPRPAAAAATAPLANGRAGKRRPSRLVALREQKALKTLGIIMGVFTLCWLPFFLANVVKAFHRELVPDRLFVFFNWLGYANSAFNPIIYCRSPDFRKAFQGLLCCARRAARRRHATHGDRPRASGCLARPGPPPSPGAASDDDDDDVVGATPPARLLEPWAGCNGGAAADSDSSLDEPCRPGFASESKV

[7] = target: Insulin receptor (Homo sapiens) (UniProt P06213); conditions: Rattus norvegicus; Compound concentration 10.0 uM
[8] = target: T1, Beta-1 adrenergic receptor; experiment: Adrenoceptor reporter cell assay (ADRB1); format: functional
Target sequence in this assay (P08588 whole entry): as the sequence (P08588 whole entry, looked up) above

[9] = target: Alpha-1A adrenergic receptor (Homo sapiens, UniProt P35348); experiment: Adrenoceptor reporter cell assay (ADRA1A); format: functional
[10] = target: T2, Muscarinic acetylcholine receptor M2 (Homo sapiens) (UniProt P08172); conditions: Compound concentration 10.0 uM
T2 sequence (whole entry): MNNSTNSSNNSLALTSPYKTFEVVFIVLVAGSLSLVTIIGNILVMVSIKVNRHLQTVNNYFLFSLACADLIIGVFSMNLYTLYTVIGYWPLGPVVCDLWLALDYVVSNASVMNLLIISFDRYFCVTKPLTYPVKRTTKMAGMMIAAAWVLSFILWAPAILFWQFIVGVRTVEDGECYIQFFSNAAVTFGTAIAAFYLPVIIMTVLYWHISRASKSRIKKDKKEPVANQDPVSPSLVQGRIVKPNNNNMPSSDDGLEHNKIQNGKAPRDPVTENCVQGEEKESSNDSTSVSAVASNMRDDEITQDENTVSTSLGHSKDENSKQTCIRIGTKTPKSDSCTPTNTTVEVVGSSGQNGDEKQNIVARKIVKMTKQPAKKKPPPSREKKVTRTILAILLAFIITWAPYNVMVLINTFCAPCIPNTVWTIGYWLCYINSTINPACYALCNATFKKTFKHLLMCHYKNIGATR

[11] = target: Monoamine oxidase A (MAO-A) (Homo sapiens, UniProt P21397); experiment: Inhibition of Monoamine Oxidase MAO-A at compound concentration of 10.0 uM in the Eurofins-Panlabs enzyme assay (Eurofins_assay_140010); parameters: substrate with concentration 50 uM Kynuramine, incubation time 60 min, incubation temperature 37 C; conditions: recombinant human MAO-A expressed in insect Hi5 cells, probe Kynuramine (50 uM), compound concentration 10 uM
[12] = target: T3, D(2) dopamine receptor (Homo sapiens, UniProt P14416); conditions: Compound concentration 10.0 uM
[13] = target: Histamine H3 receptor (Homo sapiens) (UniProt Q9Y5N1); conditions: Compound concentration 10.0 uM
[14] = target: T3, D(2) dopamine receptor; experiment: Bayer Inhouse […] panel (DRD2)
[15] = target: T4, Muscarinic acetylcholine receptor M4 (Homo sapiens) (UniProt P08173); conditions: Compound concentration 10.0 uM
T4 sequence (whole entry): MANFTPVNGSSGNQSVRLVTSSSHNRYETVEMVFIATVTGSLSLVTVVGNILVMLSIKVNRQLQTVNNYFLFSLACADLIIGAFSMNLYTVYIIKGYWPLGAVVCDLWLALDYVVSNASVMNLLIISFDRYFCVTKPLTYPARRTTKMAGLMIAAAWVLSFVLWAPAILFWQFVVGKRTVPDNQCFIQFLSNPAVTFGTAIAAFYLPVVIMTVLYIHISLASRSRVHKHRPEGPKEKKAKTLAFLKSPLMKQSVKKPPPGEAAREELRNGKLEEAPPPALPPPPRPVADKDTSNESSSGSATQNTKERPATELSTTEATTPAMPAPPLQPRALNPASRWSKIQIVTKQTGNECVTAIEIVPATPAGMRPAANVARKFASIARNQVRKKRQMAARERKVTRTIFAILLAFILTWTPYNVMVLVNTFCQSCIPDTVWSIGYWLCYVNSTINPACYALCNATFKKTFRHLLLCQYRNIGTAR

[16] = target: D(4) dopamine receptor (Homo sapiens) (UniProt P21917); conditions: Compound concentration 10.0 uM
[17] = target: GABA-A receptor; anion channel (Rattus norvegicus) (UniProt O09028+P15431+P18506+P18508+P19969+P20236+P23574+P23576+P28471+P28473+P30191+P62813+P63079+P63138+Q91ZM7+Q9ES14); conditions: Compound concentration 10.0 uM
[18] = target: Histamine H3 receptor (Homo sapiens) (UniProt Q9Y5N1); conditions: Compound concentration 10.0 uM; remark: listed apart in the source
[19] = target: Adenosine receptor A2a (Homo sapiens) (UniProt P29274); conditions: Compound concentration 10.0 uM
[20] = target: Histamine H2 receptor (Homo sapiens) (UniProt P25021); conditions: Compound concentration 10.0 uM
[21] = target: Type-1 angiotensin II receptor (Homo sapiens) (UniProt P30556); conditions: Compound concentration 10.0 uM
[22] = target: 3',5'-cyclic-AMP phosphodiesterase 4D (Homo sapiens) (UniProt Q08499); experiment: Inhibition of Phosphodiesterase PDE4D2 at 10 µM in the Eurofins-Panlabs enzyme assay (Eurofins_assay_154420); parameters: substrate with concentration; conditions: Compound concentration 10.0 uM
[23] = target: Alpha-2B adrenergic receptor (Canis lupus familiaris, UniProt Q2MDQ0); experiment: Cell based assay dog (ADRA2B); format: functional
[24] = target: 5-hydroxytryptamine receptor 1A (Homo sapiens, UniProt P08908); experiment: GPCRScan assay: inhibition of 5-HT1A; parameters: radioligand conc. used [nm] 0.5 – 1.0, parental cells stable CHO
5-hydroxytryptamine receptor 1A, sequence (P08908 whole entry): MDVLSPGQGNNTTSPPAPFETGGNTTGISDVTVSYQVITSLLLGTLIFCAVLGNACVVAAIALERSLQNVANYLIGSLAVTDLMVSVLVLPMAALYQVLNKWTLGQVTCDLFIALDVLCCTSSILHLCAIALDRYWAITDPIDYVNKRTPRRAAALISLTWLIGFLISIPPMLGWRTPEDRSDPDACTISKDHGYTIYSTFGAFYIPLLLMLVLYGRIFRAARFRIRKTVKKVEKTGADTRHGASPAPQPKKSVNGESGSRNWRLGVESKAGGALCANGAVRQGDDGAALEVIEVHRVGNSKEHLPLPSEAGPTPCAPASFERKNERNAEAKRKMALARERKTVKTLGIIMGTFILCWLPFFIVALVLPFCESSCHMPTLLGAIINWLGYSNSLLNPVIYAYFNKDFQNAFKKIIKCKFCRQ

Histamine H1 receptor (Homo sapiens), sequence (P35367 whole entry): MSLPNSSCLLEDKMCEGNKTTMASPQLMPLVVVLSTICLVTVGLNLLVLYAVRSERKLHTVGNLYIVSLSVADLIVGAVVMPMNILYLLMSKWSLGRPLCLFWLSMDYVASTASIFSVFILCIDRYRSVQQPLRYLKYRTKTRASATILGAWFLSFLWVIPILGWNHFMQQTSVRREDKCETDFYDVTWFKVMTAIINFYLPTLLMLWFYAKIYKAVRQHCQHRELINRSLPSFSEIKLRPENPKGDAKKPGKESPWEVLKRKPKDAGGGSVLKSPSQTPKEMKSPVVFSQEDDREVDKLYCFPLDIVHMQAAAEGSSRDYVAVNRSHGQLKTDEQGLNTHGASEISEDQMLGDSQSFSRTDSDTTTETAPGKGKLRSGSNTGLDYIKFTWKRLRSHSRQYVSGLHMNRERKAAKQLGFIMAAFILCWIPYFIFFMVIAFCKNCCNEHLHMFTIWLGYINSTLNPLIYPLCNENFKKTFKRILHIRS
Histamine H2 receptor (Homo sapiens), sequence (P25021 whole entry): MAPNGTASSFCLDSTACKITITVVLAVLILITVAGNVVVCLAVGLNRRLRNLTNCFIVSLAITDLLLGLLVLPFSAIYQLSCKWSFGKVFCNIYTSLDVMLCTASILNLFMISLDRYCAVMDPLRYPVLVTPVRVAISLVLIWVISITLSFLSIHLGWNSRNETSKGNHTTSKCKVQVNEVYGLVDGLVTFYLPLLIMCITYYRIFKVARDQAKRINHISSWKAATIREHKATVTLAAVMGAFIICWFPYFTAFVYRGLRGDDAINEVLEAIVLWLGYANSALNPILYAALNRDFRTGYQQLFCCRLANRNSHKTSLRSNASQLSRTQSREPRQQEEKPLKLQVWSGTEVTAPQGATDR
D(4) dopamine receptor (Homo sapiens), sequence (P21917 whole entry): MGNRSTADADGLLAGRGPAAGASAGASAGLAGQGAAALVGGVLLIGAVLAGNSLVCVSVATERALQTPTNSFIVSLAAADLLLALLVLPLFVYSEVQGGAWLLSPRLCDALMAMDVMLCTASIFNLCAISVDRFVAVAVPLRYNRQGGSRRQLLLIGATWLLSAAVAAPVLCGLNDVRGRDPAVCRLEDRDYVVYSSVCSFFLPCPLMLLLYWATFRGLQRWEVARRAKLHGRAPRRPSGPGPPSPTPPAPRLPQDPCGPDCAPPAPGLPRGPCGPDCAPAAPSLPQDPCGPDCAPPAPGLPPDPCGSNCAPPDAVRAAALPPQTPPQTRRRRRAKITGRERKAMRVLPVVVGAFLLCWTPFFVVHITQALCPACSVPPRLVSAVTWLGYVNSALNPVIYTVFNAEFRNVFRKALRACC
Histamine H3 receptor (Homo sapiens), sequence (Q9Y5N1 whole entry): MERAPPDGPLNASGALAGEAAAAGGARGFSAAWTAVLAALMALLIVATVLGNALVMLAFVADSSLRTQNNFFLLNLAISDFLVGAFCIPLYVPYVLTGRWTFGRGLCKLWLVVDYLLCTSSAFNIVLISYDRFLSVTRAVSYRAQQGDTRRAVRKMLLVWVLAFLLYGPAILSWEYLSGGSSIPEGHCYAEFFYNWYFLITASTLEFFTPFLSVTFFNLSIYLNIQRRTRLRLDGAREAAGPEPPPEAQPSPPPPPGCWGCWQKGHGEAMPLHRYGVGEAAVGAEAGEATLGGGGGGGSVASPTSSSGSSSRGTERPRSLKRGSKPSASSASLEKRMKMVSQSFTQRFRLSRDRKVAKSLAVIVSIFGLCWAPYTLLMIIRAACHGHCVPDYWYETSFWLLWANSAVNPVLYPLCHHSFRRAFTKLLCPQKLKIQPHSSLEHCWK
D(1A) dopamine receptor (Homo sapiens), sequence (P21728 whole entry): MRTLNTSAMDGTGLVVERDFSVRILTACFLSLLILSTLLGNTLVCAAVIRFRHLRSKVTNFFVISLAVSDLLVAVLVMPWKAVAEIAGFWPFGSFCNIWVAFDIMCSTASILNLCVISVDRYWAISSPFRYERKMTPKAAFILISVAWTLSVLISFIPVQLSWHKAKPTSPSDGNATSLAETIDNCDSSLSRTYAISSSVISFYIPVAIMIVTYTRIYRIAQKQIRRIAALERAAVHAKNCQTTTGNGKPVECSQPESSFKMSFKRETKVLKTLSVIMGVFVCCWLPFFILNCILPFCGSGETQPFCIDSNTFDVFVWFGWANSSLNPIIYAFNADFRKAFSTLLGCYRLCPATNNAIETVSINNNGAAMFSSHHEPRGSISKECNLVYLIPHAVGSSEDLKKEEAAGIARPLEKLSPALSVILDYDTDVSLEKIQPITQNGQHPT
T3 sequence (P14416 whole entry): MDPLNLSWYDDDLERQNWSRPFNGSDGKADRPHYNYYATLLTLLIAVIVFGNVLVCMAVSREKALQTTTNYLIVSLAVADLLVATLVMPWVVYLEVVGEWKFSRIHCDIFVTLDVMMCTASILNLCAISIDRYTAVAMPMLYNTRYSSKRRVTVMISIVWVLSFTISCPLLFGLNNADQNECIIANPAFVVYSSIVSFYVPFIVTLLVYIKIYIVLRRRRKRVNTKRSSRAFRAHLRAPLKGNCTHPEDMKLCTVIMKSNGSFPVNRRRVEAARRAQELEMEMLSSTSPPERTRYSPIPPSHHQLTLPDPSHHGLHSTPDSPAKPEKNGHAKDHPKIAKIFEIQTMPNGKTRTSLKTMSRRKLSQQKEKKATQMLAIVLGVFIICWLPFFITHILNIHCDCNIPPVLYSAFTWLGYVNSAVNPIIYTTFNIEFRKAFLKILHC
Alpha-1A adrenergic receptor, sequence (P35348 whole entry): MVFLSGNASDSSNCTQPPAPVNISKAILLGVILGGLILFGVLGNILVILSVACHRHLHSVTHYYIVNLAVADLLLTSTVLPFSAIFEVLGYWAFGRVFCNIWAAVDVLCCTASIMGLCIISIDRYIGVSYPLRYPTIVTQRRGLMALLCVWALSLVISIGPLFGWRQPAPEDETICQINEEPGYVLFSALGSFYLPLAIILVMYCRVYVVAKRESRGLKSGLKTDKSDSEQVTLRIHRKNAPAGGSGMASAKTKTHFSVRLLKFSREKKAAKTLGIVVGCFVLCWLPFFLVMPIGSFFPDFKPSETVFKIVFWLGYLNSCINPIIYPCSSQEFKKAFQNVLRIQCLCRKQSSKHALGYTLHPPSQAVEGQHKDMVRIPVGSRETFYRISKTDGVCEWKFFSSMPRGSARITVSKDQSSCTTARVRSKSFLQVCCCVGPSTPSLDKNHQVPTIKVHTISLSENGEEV
Type-1 angiotensin II receptor (Homo sapiens), sequence (P30556 whole entry): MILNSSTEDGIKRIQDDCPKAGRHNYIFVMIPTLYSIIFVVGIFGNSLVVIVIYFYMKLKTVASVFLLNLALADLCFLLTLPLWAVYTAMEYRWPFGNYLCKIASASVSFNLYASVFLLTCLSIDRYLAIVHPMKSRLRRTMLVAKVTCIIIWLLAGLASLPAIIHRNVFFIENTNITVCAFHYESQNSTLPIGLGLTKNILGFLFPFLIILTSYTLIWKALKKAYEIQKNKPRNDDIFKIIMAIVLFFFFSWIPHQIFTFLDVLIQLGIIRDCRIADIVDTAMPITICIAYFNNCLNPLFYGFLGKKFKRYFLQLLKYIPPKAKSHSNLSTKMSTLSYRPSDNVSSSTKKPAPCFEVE
Adenosine receptor A2a (Homo sapiens), sequence (P29274 whole entry): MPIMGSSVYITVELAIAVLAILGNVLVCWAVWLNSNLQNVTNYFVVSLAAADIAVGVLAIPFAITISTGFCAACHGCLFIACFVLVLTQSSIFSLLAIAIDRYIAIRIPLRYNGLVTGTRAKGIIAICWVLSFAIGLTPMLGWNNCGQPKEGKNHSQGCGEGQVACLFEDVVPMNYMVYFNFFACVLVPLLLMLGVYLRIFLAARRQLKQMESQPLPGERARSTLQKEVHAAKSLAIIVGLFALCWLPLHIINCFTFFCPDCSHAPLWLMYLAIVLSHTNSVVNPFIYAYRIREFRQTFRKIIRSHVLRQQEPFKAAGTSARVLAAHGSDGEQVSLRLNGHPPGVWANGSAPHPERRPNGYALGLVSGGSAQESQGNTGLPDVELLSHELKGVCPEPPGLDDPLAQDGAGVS

| SMILES | inhibition [3] [%] | inhibition [5] [%] | inhibition [6] [%] | IC50 [9] | inhibition [10] [%] | IC50 [14] | inhibition [15] [%] | inhibition [16] [%] | inhibition [18] [%] | inhibition [20] [%] | further results |
| --- | --- | --- | --- | --- | --- | --- | --- | --- | --- | --- | --- |
| CNc1cc[n+](CCNC(=O)c2ccn3c(-c4c(C)noc4C)cnc3c2)cc1 | 1.15 | -2.83 | 2.87 | 5.52 µM (not active) | 3.34 | 1.4 µM (not active) | -6.15 | 11.3 | 9.04 | 5.19 | inhibition [1]: 4%; inhibition [2]: 4.24%; inhibition [4]: 6.3%; inhibition [7]: -3.4%; IC50 [8]: > 10 µM (not active); inhibition at 60 min, 10 µM [11]: -13.8% (not active); inhibition [12]: -5.2%; inhibition [13]: 1.6%; inhibition [17]: -3.7%; inhibition [19]: -8.3%; inhibition [21]: 5%; inhibition [22]: -0.5% |
| Cc1noc(C)c1-c1cnc2cc(C(=O)NCCC[n+]3ccc(N(C)C)cc3)ccn12 | 2.11 | -2.67 | 3.84 | > 10 µM (not active) | 7.75 | > 20 µM (not active) | 12.5 | 3.03 | 36 | 9.52 | IC50 [23]: 10 µM (not active); Ki ([24]; read-out: Ki): 0.212 µM; Ki ([24]; read-out: pKi (converted)): 0.182 µM |
